The subject of assay [1] is NCI-H460 (large cell lung carcinoma) cells. The experiment in a line: antiproliferation assay (72 h, CELLTITER 96), NCI-H460. In kind it is cell-based, human. Particulars: Homo sapiens. On the procedure: (§1) All of the compounds shown in Table 3-Table 8 below were prepared synthetically as described in EXAMPLE I. The compounds were tested for their ability to inhibit the proliferation of human cancer cells in vitro as described in the following paragraph. Table 3-Table 8 list the IC50 values in the M14 and NCI-H460 human cancer cell lines. IC50 is defined as the concentration of compound necessary to achieve 50% of the maximum growth inhibition.
(§2) For the antiproliferation assay, NCI-H460 (large cell lung carcinoma) or M14 (amelanotic melanoma) cells were grown in RPMI-1640 with 10% FBS supplemented with L-glutamine and HEPES. Cells were seeded into 96-well plates at 5×10^2 to 5×10^4 cells/well and allowed to adhere overnight; the medium was then removed. A stock solution of test compound in DMSO was diluted in medium to generate a series of working solutions. Aliquots (100 μl) of the working solutions were then added to the appropriate test wells to expose cells to the final concentrations of compound in a total volume of 100 μl. Seven different concentrations were tested, with 2-5 wells per concentration. Camptothecin was used as a positive control; wells containing vehicle without compound were used as negative controls. Plates were kept for 72 h in a 37° C., 5% CO2 incubator. After incubation, viable cells were detected with the CELLTITER 96 AQueous Non-Radioactive Cell Proliferation Assay (Promega), and IC50 values were determined using GraphPad Prism 5 software.

Assay [2] deals with M14 (amelanotic melanoma) cells. The experiment in a line: antiproliferation assay (72 h, CELLTITER 96), M14. In kind it is cell-based, human. The conditions noted are these: Homo sapiens. On the procedure: as §1, §2
The mark [3] stands for this setting: NCI-H460, Table 6, read-out: NCI-H460 IC50.
Where [4] appears, read: NCI-H460, Table 3, read-out: NCI-H460 IC50.
Where [5] appears, read: NCI-H460, Table 4, read-out: NCI-H460 IC50.
Where [6] appears, read: NCI-H460, Table 7, read-out: NCI-H460 IC50.
The mark [7] stands for this setting: NCI-H460, Table 5, read-out: NCI-H460 IC50.
Where [8] appears, read: NCI-H460, stereoisomers of compound 4, Table 1, read-out: IC50 NCI-H460.

Where two headings read alike, the source gives them in different places.

Take `C=CC[C@H]1C[C@]2([C@@H](C)Cc3cccc(OC)c3)OCOC2=CC1=O` [Compound 50, (6S,7aR)-6-allyl-7a-((S)-1-(3-methoxyphenyl)propan-2-yl)-7,7a-dihydrobenzo[d][1,3]dioxol-5(6H)-one]: the results for the IC50 in assay [1] (setting [3]) and in assay [2] (Table 6) were 10600 nM and 8800 nM, respectively.

With `C=CC[C@H]1C[C@]2([C@H](C)Cc3c(F)cc(OC)cc3F)OCOC2=CC1=O` [Compound 23, (6S,7aR)-6-allyl-7a-((R)-1-(2,6-difluoro-4-methoxyphenyl)propan-2-yl)-7,7a-dihydrobenzo[d][1,3]dioxol-5(6H)-one], the IC50 in assay [1] (setting [4]) was found to be 720 nM; in assay [2] (Table 3), 270 nM. For `C=CC[C@H]1C[C@]2([C@H](C)Cc3ccc(OC)c(CO)c3)OCOC2=CC1=O` [Compound 28, (6S,7aR)-6-allyl-7a-((R)-1-(3-(hydroxymethyl)-4-methoxyphenyl)propan-2-yl)-7,7a-dihydrobenzo[d][1,3]dioxol-5(6H)-one], the values for the IC50 in assay [1] (setting [5]) and in assay [2] (Table 4) were 4200 nM and 10000 nM, respectively.

With `C=CC[C@H]1C[C@]2([C@@H](C)Cc3ccc(OC)c(Cl)c3)OCOC2=CC1=O` [Compound 38, (6S,7aR)-6-allyl-7a-((S)-1-(3-chloro-4-methoxyphenyl)propan-2-yl)-7,7a-dihydrobenzo[d][1,3]dioxol-5(6H)-one], the IC50 came out at 640 nM in assay [1] (setting [5]) and 240 nM in assay [2] (Table 4). The corresponding values for `C=CC[C@H]1C[C@]2([C@@H](C)Cc3ccc(OC)c(C#N)c3)OCOC2=CC1=O` [Compound 31, 5-((S)-2-((3aR,5S)-5-allyl-6-oxo-3a,4,5,6-tetrahydrobenzo[d][1,3]dioxol-3a-yl)propyl)-2-methoxybenzonitrile] are 340 nM and 180 nM. Regarding `CCC[C@H]1C[C@]2([C@@H](C)Cc3cc(O)c(OC)cc3F)OCOC2=CC1=O` [Compound 59], the figures for the IC50 in assay [1] (setting [6]) and in assay [2] (Table 7) were 170 nM and 58 nM, respectively.

On to `COc1cc(F)c(C[C@H](C)[C@]23C[C@H](Cc4ccccc4)C(=O)C=C2OCO3)cc1O` [Compound 66, (6S,7aR)-6-benzyl-7a-((S)-1-(2-fluoro-5-hydroxy-4-methoxyphenyl)propan-2-yl)-7,7a-dihydrobenzo[d][1,3]dioxol-5(6H)-one], for which the results for the IC50 in assay [1] (setting [6]) and in assay [2] (Table 7) were 2600 nM and 1600 nM, respectively. The corresponding values for `COc1cc(F)c(C[C@H](C)[C@]23C[C@H](CC(C)=O)C(=O)C=C2OCO3)cc1O` [Compound 111, (6R,7aR)-7a-((S)-1-(2-fluoro-5-hydroxy-4-methoxyphenyl)propan-2-yl)-6-(2-oxopropyl)-7,7a-dihydrobenzo[d][1,3]dioxol-5(6H)-one] are 15000 nM and 7000 nM.

For the compound `C=CC[C@H]1C[C@]2([C@H](C)Cc3ccc(N(C)C)c(F)c3)OCOC2=CC1=O` [Compound 46, (6S,7aR)-6-allyl-7a-((R)-1-(4-(dimethylamino)-3-fluorophenyl)propan-2-yl)-7,7a-dihydrobenzo[d][1,3]dioxol-5(6H)-one], the IC50 in assay [1] (setting [7]) is 1400 nM; in assay [2] (Table 5), 640 nM. In the case of `C=CC[C@H]1C[C@]2([C@H](C)Cc3ccc(OC)c(OC)c3F)OCOC2=CC1=O` [Compound 21, (6S,7aR)-6-allyl-7a-((R)-1-(2-fluoro-3,4-dimethoxyphenyl)propan-2-yl)-7,7a-dihydrobenzo[d][1,3]dioxol-5(6H)-one], the IC50 turned out to be 3000 nM in assay [1] (setting [4]) and 2800 nM in assay [2] (Table 3). For the compound `COc1ccc(CC(C)[C@]23CC(CC(C)=O)C(=O)C=C2OCO3)cc1OC` (stereo partly drawn) [Compound 106], the IC50 in assay [1] (setting [6]) and in assay [2] (Table 7) was greater than 20000 nM each time. For the compound `C=CC[C@H]1C[C@]2([C@@H](C)Cc3ccc(OC)c(OC(=O)N(C)C)c3)OCOC2=CC1=O` [Compound 73, 5-((S)-2-((3aR,5S)-5-allyl-6-oxo-3a,4,5,6-tetrahydrobenzo[d][1,3]dioxol-3a-yl)propyl)-2-methoxyphenyl dimethylcarbamate], the IC50 in assay [1] (setting [5]) and in assay [2] (Table 4) was greater than 20000 nM throughout. As for `C/C=C/C[C@H]1C[C@]2([C@@H](C)Cc3ccc(OC)cc3F)OCOC2=CC1=O` [Compound 67, (6S,7aR)-6-((E)-but-2-en-1-yl)-7a-((S)-1-(2-fluoro-4-methoxyphenyl)propan-2-yl)-7,7a-dihydrobenzo[d][1,3]dioxol-5(6H)-one], the values for the IC50 in assay [1] (setting [6]) and in assay [2] (Table 7) were 250 nM and 210 nM, respectively.

For `CC[C@H](C)[C@H]1C[C@]2([C@@H](C)Cc3cc(O)c(OC)cc3F)OCOC2=CC1=O` [Compound 77, (6R,7aR)-6-((S)-sec-butyl)-7a-((S)-1-(2-fluoro-5-hydroxy-4-methoxyphenyl)propan-2-yl)-7,7a-dihydrobenzo[d][1,3]dioxol-5(6H)-one], the IC50 came out at 550 nM in assay [1] (setting [6]) and 110 nM in assay [2] (Table 7). Regarding `COc1ccc(C[C@H](C)[C@]23C[C@H](CC4CC4)C(=O)C=C2OCO3)c(F)c1` (relative stereo) [Compound 63, (7aR)-6-(cyclopropylmethyl)-7a-((S)-1-(2-fluoro-4-methoxyphenyl)propan-2-yl)-7,7a-dihydrobenzo[d][1,3]dioxol-5(6H)-one], the IC50 in assay [1] (setting [6]) was 1700 nM; in assay [2] (Table 7), greater than 20000 nM. As for `C=CC[C@H]1C[C@]2([C@@H](C)Cc3cc(NC(C)=O)c(OC)cc3F)OCOC2=CC1=O` [Compound 18, N-(5-((S)-2-((3aR,5S)-5-allyl-6-oxo-3a,4,5,6-tetrahydrobenzo[d][1,3]dioxol-3a-yl)propyl)-4-fluoro-2-methoxyphenyl)acetamide], the figures for the IC50 in assay [1] (setting [4]) and in assay [2] (Table 3) were 410 nM and 160 nM, respectively. Turning to `C=CC[C@H]1C[C@]2(C(C)Cc3ccc(OC)cc3OC)OCOC2=CC1=O` (stereo partly drawn) [Compound 52, (6S,7aR)-6-allyl-7a-(1-(2,4-dimethoxyphenyl)propan-2-yl)-7,7a-dihydrobenzo[d][1,3]dioxol-5(6H)-one], the IC50 in assay [1] (setting [3]) and in assay [2] (Table 6) was 15000 nM each time.

As for `C=C(C)C[C@H]1C[C@]2([C@@H](C)Cc3cc(O)c(OC)cc3F)OCOC2=CC1=O` [Compound 80, (6S,7aR)-7a-((S)-1-(2-fluoro-5-hydroxy-4-methoxyphenyl)propan-2-yl)-6-(2-methylallyl)-7,7a-dihydrobenzo[d][1,3]dioxol-5(6H)-one], the IC50 in assay [1] (setting [6]) is 370 nM; in assay [2] (Table 7) it was 220 nM. Regarding `C=CC[C@H]1C[C@]2([C@H](C)Cc3cc(F)c(NC)cc3F)OCOC2=CC1=O` (relative stereo) [Compound 44, 6-allyl-7a-(1-(2,5-difluoro-4-(methylamino)phenyl)propan-2-yl)-7,7a-dihydrobenzo[d][1,3]dioxol-5(6H)-one], the results for the IC50 in assay [1] (setting [7]) and in assay [2] (Table 5) were 68 nM and 16 nM, respectively. With `CCC[C@H]1C[C@]2([C@@H](C)Cc3ccc(OC)c(OC)c3)OCOC2=CC1=O` [Compound 70, (6S,7aR)-7a-((S)-1-(3,4-dimethoxyphenyl)propan-2-yl)-6-propyl-7,7a-dihydrobenzo[d][1,3]dioxol-5(6H)-one], the IC50 in assay [1] (setting [6]) was greater than 4000 nM; in assay [2] (Table 7), 7400 nM.

`COc1cc(F)c(C[C@H](C)[C@]23CCC(=O)C=C2OCO3)cc1O` [Compound 104, (R)-7a-((S)-1-(2-fluoro-5-hydroxy-4-methoxyphenyl)propan-2-yl)-7,7a-dihydrobenzo[d][1,3]dioxol-5(6H)-one]: the IC50 in assay [1] (setting [6]) and in assay [2] (Table 7) was greater than 20000 nM in each case. For the compound `C=CC[C@H]1C[C@]2([C@H](C)Cc3ccc(OC)c(N(C)C)c3)OCOC2=CC1=O` [Compound 97, (6S,7aR)-6-allyl-7a-((R)-1-(3-(dimethylamino)-4-methoxyphenyl)propan-2-yl)-7,7a-dihydrobenzo[d][1,3]dioxol-5(6H)-one], the IC50 in assay [1] (setting [5]) and in assay [2] (Table 4) was greater than 20000 nM in each case. With `C=CC[C@H]1C[C@]2([C@@H](C)Cc3ccc(OC)c(C(=O)NC)c3)OCOC2=CC1=O` [Compound 30, 5-((S)-2-((3aR,5S)-5-allyl-6-oxo-3a,4,5,6-tetrahydrobenzo[d][1,3]dioxol-3a-yl)propyl)-2-methoxy-N-methylbenzamide], the values for the IC50 in assay [1] (setting [5]) and in assay [2] (Table 4) were 1100 nM and 1400 nM, respectively. As to `C=CC[C@H]1C[C@]2([C@@H](C)Cc3ccc(OC(F)(F)F)cc3)OCOC2=CC1=O` [Compound 41, (6S,7aR)-6-allyl-7a-((S)-1-(4-(trifluoromethoxy)phenyl)propan-2-yl)-7,7a-dihydrobenzo[d][1,3]dioxol-5(6H)-one], the IC50 is 3800 nM in assay [1] (setting [7]) and greater than 20000 nM in assay [2] (Table 5). As for `C=CC[C@@H]1C[C@]2([C@H](C)Cc3cc(O)c(OC)cc3F)OCOC2=CC1=O` [SQ 1378], the IC50 in assay [1] (setting [8]) is 1900 nM. Take `C=CC[C@H]1C[C@]2([C@@H](C)Cc3ccc(OC)c(OC)c3F)OCOC2=CC1=O` [Compound 20, (6S,7aR)-6-allyl-7a-((S)-1-(2-fluoro-3,4-dimethoxyphenyl)propan-2-yl)-7,7a-dihydrobenzo[d][1,3]dioxol-5(6H)-one]: the IC50 in assay [2] (Table 3) was determined as 710 nM.

Consider `C=CC[C@@H]1C[C@]2([C@@H](C)Cc3cc(O)c(OC)cc3F)OCOC2=CC1=O` [SQ 1389], for which, in assay [1] (setting [8]), the IC50 was 2500 nM.
